{"source": "paper PMC10387993", "about": "“New pyrimidine-N-β-D-glucosides: synthesis, biological evaluation, and molecular docking investigations” (Turkish Journal of Chemistry, 2023)", "assay_type_in_all_cases": "cell-based", "key": {"HT29": {"tested_on": "HT29", "assay": "cells", "details": "Homo sapiens", "experimental": "(§1) The cell lines were cultured in a cell medium (Dulbecco’s modified eagle’s or RPMI 1640) enriched with 10% (v/v) fetal bovine serum and 2% (v/v) Penicillin-Streptomycin (10,000 U/mL). First, old medium was removed out of the flask when the cells reached approximately 80% confluence. Next, cells were taken from the flasks surface using trypsin-EDTA solution and then subjected to centrifugation. Following, the cell pellet was suspended with fresh media and was inoculated into wells.\n(§2) A cell suspension containing approximately 1 × 10^4 cells in 100 μL was seeded into the wells of 96-well culture plates. […]. The final volume of the wells was set to 200 μL by medium. Cell proliferation assay was evaluated by MTT (yellow tetrazolium MTT (3-(4,5-dimethylthiazolyl-2)-2,5-diphenyltetrazolium bromide) methods. Briefly, an MTT stock solution (5 mg of MTT/mL of distilled water) was filtered and kept at −20 °C until use. The cells were exposed to an MTT reagent (consisting of one parts of MTT stock solutions and nine parts of fresh RPMI 1640 without phenol red) for 4 h to form MTT formazan dye followed by the dye dissolved in DMSO with Sorenson’s buffer for 30 min at room temperature and then the plate was measured at 560 nm, with 690 nm as a reference interval, using a microplate reader. Each experiment was repeated at least three times for each cell line.\n(§3) IC50 value is a concentration that inhibits half of the cells in vitro. The half maximal inhibitory concentration (IC50) of the test and control compounds was calculated using XLfit5 or excel spreadsheet and represent in μM at 95% confidence intervals. The proliferation assay results were expressed as the percent inhibition according to the following formula: % Inhibition = [1 - (Absorbance of Treatments /Absorbance of DMSO) × 100]. Three dose response parameters (GI50, TGI, LC50) were calculated according to the following formulas using the absorbance measurements of time zero (Tz), control growth (C), and test growth in the presence of drug (Ti). Growth inhibition of 50% (GI50) was calculated from [(Ti-Tz)/(C-Tz)] × 100 = 50, which is the drug concentration resulting in a 50% reduction in the net growth increase in control cells during the drug incubation. The drug concentration resulting in total growth inhibition (TGI) was calculated from Ti = Tz. The LC50 indicating a net loss of cells following treatment was calculated from [(Ti-Tz)/Tz] × 100 = −50."}, "Hep3B": {"tested_on": "Hep3B", "assay": "cells", "details": "Homo sapiens", "experimental": "as §1, §2, §3"}, "HeLa": {"tested_on": "HeLa", "assay": "cells", "details": "Homo sapiens", "experimental": "as §1, §2, §3"}, "MCF7": {"tested_on": "MCF7", "assay": "cells", "details": "Homo sapiens", "experimental": "as §1, §2, §3"}, "C6 (Rat brain glioma)": {"tested_on": "C6 (Rat brain glioma)", "assay": "cells", "details": "Rattus norvegicus", "experimental": "as §1, §2, §3"}, "A549": {"tested_on": "A549", "assay": "cells", "details": "Homo sapiens", "experimental": "as §1, §2, §3"}, "[1]": {"assay": "LDH cytotoxic activity assay, HeLa", "details": "human, HeLa cells", "experimental": "as §1\n(§4) Approximately 5 × 10^3 cells in 100 μL were placed into 96-well plates as triplicates and treated with 25, 50, 75, and 100 μg/mL concentrations of test compounds at 37 °C with 5% CO2 for 24 h. LDH activity was obtained by determining absorbance at 492–630 nm using a microplate reader."}, "S. gordonii NCTC 7870": {"tested_on": "S. gordonii NCTC 7870", "assay": "Microdilution MIC assay", "details": "Streptococcus gordonii, NCTC7870; S. gordonii NCTC 7870, 24 h at 35 °C", "experimental": "(§5) MIC values of the compounds against bacterial strains were determined on the basis of a microwell dilution method. […] […]. Growth of microorganisms was determined visually after incubation for 24 h at 35 °C. The lowest concentration at which there was no visible growth (turbidity) was taken as the MIC."}, "E. coli ATCC 25922": {"tested_on": "E. coli ATCC 25922", "assay": "Microdilution MIC assay", "details": "Escherichia coli, ATCC25922; E. coli ATCC 25922, 24 h at 35 °C", "experimental": "as §5"}, "[2]": {"tested_on": "S. aureus MRSA ATCC 46300", "assay": "Microdilution MIC assay", "details": "Staphylococcus aureus; S. aureus MRSA ATCC 46300, 24 h at 35 °C; read-out: MIC", "experimental": "as §5"}, "E. coli ESBL ATCC 35218": {"tested_on": "E. coli ESBL ATCC 35218", "assay": "Microdilution MIC assay", "details": "Escherichia coli, ATCC35218; E. coli ESBL ATCC 35218, 24 h at 35 °C", "experimental": "as §5"}, "[3]": {"tested_on": "E. faecalis VRE ATCC 19433", "assay": "Microdilution MIC assay", "details": "Enterococcus faecalis; E. faecalis VRE ATCC 19433, 24 h at 35 °C", "experimental": "as §5"}, "[4]": {"assay": "LDH cytotoxic activity assay, HT29", "details": "human, HT29 cells", "experimental": "as §1, §4"}, "[5]": {"assay": "LDH cytotoxic activity assay, C6", "details": "rat, C6 glioma cells", "experimental": "as §1, §4"}, "normal FL cells": {"tested_on": "normal FL cells", "assay": "cells", "details": "FL normal cells, MTT", "experimental": "as §1, §2, §3"}, "in vitro": {"assay": "in vitro", "details": "human, LC50", "experimental": "as §1, §2, §3"}}}
{"smiles": "Cc1ccccc1-c1cc(-c2cccnc2)nc(N[C@@H]2O[C@H](CO)[C@@H](O)[C@H](O)[C@H]2O)n1", "note": "[Compound 2, N-[4-(2-methylphenyl)-6-pyridin-3-ylpyrimidin-2-yl]-β-D-glucopyranosylamine]", "values": [{"measurement": "LC50 (concentration giving 50% net cell loss relative to time zero)", "setting": "HT29; HT-29, read-out: LC50", "result": "> 500", "unit": "µg/mL"}, {"measurement": "GI50", "setting": "HT29; HT-29, HT29, MTT", "result": 2.46, "unit": "µg/mL"}, {"measurement": "IC50", "setting": "HT29; HT-29, HT29, MTT, read-out: IC50", "result": 453, "unit": "µg/mL"}, {"measurement": "IC (total growth inhibition)", "setting": "HT29; HT-29, HT29, MTT, read-out: TGI", "result": "> 500", "unit": "µg/mL"}, {"measurement": "GI50", "setting": "Hep3B; MTT", "result": 3.85, "unit": "µg/mL"}, {"measurement": "IC50", "setting": "Hep3B; MTT, read-out: IC50", "result": "> 500", "unit": "µg/mL"}, {"measurement": "IC (total growth inhibition)", "setting": "Hep3B; MTT, read-out: TGI", "result": "> 500", "unit": "µg/mL"}, {"measurement": "LC50 (concentration causing 50% net cell loss relative to time zero)", "setting": "Hep3B; read-out: LC50", "result": "> 500", "unit": "µg/mL"}, {"measurement": "GI50", "setting": "HeLa; MTT", "result": "> 500", "unit": "µg/mL"}, {"measurement": "IC50", "setting": "HeLa; MTT, read-out: IC50", "result": "> 500", "unit": "µg/mL"}, {"measurement": "IC (total growth inhibition)", "setting": "HeLa; MTT, read-out: TGI", "result": "> 500", "unit": "µg/mL"}, {"measurement": "LC50 (concentration causing 50% net cell loss)", "setting": "HeLa; read-out: LC50", "result": "> 500", "unit": "µg/mL"}, {"measurement": "LC50 (concentration causing 50% net cell loss relative to time zero)", "setting": "MCF7; MCF7, read-out: LC50", "result": "> 500", "unit": "µg/mL"}, {"measurement": "GI50", "setting": "MCF7; MCF7, MTT", "result": 1.69, "unit": "µg/mL"}, {"measurement": "IC50", "setting": "MCF7; MCF7, MTT, read-out: IC50", "result": "> 500", "unit": "µg/mL"}, {"measurement": "IC (total growth inhibition)", "setting": "MCF7; MCF7, MTT, read-out: TGI", "result": "> 500", "unit": "µg/mL"}, {"measurement": "LC50 (concentration giving 50% net cell loss relative to time zero)", "setting": "C6 (Rat brain glioma); read-out: LC50", "result": 217, "unit": "µg/mL"}, {"measurement": "GI50", "setting": "C6 (Rat brain glioma); C6, MTT", "result": 9.17, "unit": "µg/mL"}, {"measurement": "IC50", "setting": "C6 (Rat brain glioma); C6, MTT, read-out: IC50", "result": 49.7, "unit": "µg/mL"}, {"measurement": "IC (total growth inhibition)", "setting": "C6 (Rat brain glioma); C6, MTT, read-out: TGI", "result": 31.6, "unit": "µg/mL"}, {"measurement": "LC50 (concentration causing 50% net cell loss)", "setting": "A549; A549, read-out: LC50", "result": "> 500", "unit": "µg/mL"}, {"measurement": "GI50", "setting": "A549; A549, MTT", "result": 11.6, "unit": "µg/mL"}, {"measurement": "IC50", "setting": "A549; A549, MTT, read-out: IC50", "result": "> 500", "unit": "µg/mL"}, {"measurement": "IC (total growth inhibition)", "setting": "A549; A549, MTT, read-out: TGI", "result": "> 500", "unit": "µg/mL"}, {"measurement": "cytotoxicity at 24 h, 25 μg/mL", "setting": "[1]; 25 μg/mL", "result": 30.5, "unit": "%"}, {"measurement": "cytotoxicity at 24 h, 50 μg/mL", "setting": "[1]; 50 μg/mL", "result": 47.2, "unit": "%"}, {"measurement": "cytotoxicity at 24 h, 75 μg/mL", "setting": "[1]; 75 μg/mL", "result": 49.7, "unit": "%"}, {"measurement": "cytotoxicity at 24 h, 100 μg/mL", "setting": "[1]; 100 μg/mL", "result": 72.1, "unit": "%"}, {"measurement": "MIC", "setting": "S. gordonii NCTC 7870", "result": 500, "unit": "µg/mL"}, {"measurement": "MIC", "setting": "E. coli ATCC 25922", "result": "> 1000", "unit": "µg/mL"}, {"measurement": "MIC", "setting": "[2]", "result": 125, "unit": "µg/mL"}, {"measurement": "MIC", "setting": "E. coli ESBL ATCC 35218", "result": "> 1000", "unit": "µg/mL"}, {"measurement": "MIC", "setting": "[3]", "result": "> 1000", "unit": "µg/mL"}, {"measurement": "cytotoxicity at 24 h, 25 μg/mL", "setting": "[4]; HT29, 25 μg/mL", "result": 27.7, "unit": "%"}, {"measurement": "cytotoxicity at 24 h, 50 μg/mL", "setting": "[4]; HT29, 50 μg/mL", "result": 44.8, "unit": "%"}, {"measurement": "cytotoxicity at 24 h, 75 μg/mL", "setting": "[4]; HT29, 75 μg/mL", "result": 72.7, "unit": "%"}, {"measurement": "cytotoxicity at 24 h, 100 μg/mL", "setting": "[4]; HT29, 100 μg/mL", "result": 94.6, "unit": "%"}, {"measurement": "cytotoxicity at 24 h, 25 μg/mL", "setting": "[5]; C6, 25 μg/mL", "result": 30.8, "unit": "%"}, {"measurement": "cytotoxicity at 24 h, 50 μg/mL", "setting": "[5]; C6, 50 μg/mL", "result": 49.8, "unit": "%"}, {"measurement": "cytotoxicity at 24 h, 75 μg/mL", "setting": "[5]; C6, 75 μg/mL", "result": 72.7, "unit": "%"}, {"measurement": "cytotoxicity at 24 h, 100 μg/mL", "setting": "[5]; C6, 100 μg/mL", "result": 99.8, "unit": "%"}, {"measurement": "GI50", "setting": "normal FL cells", "result": 3.68, "unit": "µg/mL"}, {"measurement": "IC50", "setting": "normal FL cells; read-out: IC50", "result": 457, "unit": "µg/mL"}, {"measurement": "IC (total growth inhibition)", "setting": "normal FL cells; read-out: TGI", "result": "> 500", "unit": "µg/mL"}, {"measurement": "LC50 (concentration causing 50% net cell loss)", "setting": "in vitro", "result": "> 500", "unit": "µg/mL"}]}
